Measured values as given in patent US20140363384A1, “COMBINATION THERAPY FOR COPD” (CHIESI FARMACEUTICI S.p.A., priority 2009, published 2014).

Experiments:
[1] = Stability of single, double and triple combination aerosol solution formulations: residual content of active ingredient in the can; assay type: physicochemical; conditions: for Residual % amount ± standard deviation: stored 3 months at 25° C./60% relative humidity, versus amount at time 0
Protocol: +25° C./60% relative humidity (accelerated storage conditions);
+30° C./65% relative humidity; and
+40° C./75% relative humidity.

[2] = Analysis of impurities/degradation products by HPLC/UV VIS; conditions: for Total impurities % Vs active ingredient: stored 3 months at 25° C./60% relative humidity
[3] = triple combination FF+GLY+BDP aerosol solution
[4] = triple combination, +5° C. to +40° C./75% RH, 1, 2 and 3 months
[5] = triple combination FF+GLY+BDP, versus initial amount of the active ingredient

Row | SMILES | Residual % amount ± standard deviation ([1]; double combination FF + BDP) | Residual % amount ± standard deviation [1, 3] | can content versus time and temperature of storage [1, 4] | Total impurities % Vs active ingredient ([2]; double combination FF + BDP) | Total impurities % Vs active ingredient [2, 5] | Total impurities % Vs active ingredient ([2]; double combination FF + Gly) | level of degradation products (HPLC/UV) ([2]; formulations comprising both formoterol and GLY) | Residual % amount ± standard deviation ([1]; double combination FF + Gly) | can content versus time and temperature of storage ([1]; double combination FF+GLY, all tested storage conditions) | can content versus time and temperature of storage ([1]; single agent GLY formulation in the presence of 1M HCl) | can content versus time and temperature of storage ([1]; single agent GLY formulation, acid omitted)
1 | CCC(=O)OCC(=O)[C@@]1(OC(=O)CC)[C@@H](C)C[C@H]2[C@@H]3CCC4=CC(=O)C=C[C@]4(C)[C@@]3(Cl)[C@@H](O)C[C@@]21C [BDP, beclometasone dipropionate] | 98.9 ± 0.6% | 94.5 ± 0.3% | not significantly affected by time and temperature | 0.20% | 0.21% |  |  |  |  |  | 
2 | COc1ccc(C[C@@H](C)NC[C@H](O)c2ccc(O)c(NC=O)c2)cc1.COc1ccc(C[C@@H](C)NC[C@H](O)c2ccc(O)c(NC=O)c2)cc1.O=C(O)/C=C/C(=O)O [FF, formoterol fumarate] |  |  |  | 0.80% | 1.1% | 1.3% | high levels of degradation products |  |  |  | 
3 | C[N+]1(C)CCC(OC(=O)C(O)(c2ccccc2)C2CCCC2)C1.[Cl-] (stereo not drawn) [Gly, 3-[(cyclopentylhydroxyphenyl-acetyl)oxy]-1,1-dimethylpyrrolidinium chloride] |  | 96.4 ± 1.3% | not significantly affected by time and temperature |  |  |  |  | 96.0 ± 0.1% | remains stable under all of the tested conditions | maintain a constant content | highly dependent on time and temperature of storage
